± gives the expanded uncertainty stated by the source.
Assay: molar heat capacity at constant pressure
Details: 101.33 kPa

Clc1cc(Cl)cc(Cl)c1 [1,3,5-trichlorobenzene]
molar heat capacity at constant pressure [J/K/mol]
Details | Crystal | Liquid
271.48 K | 148.45 ± 0.7 | –
273.41 K | 149.19 ± 0.7 | –
275.71 K | 150.21 ± 0.7 | –
276.13 K | 150.38 ± 0.7 | –
277.82 K | 150.9 ± 0.7 | –
278.84 K | 151.41 ± 0.7 | –
279.93 K | 151.88 ± 0.7 | –
280 K | 151.91 ± 0.7 | –
281.54 K | 152.27 ± 0.7 | –
282.02 K | 152.47 ± 0.71 | –
284.11 K | 153.34 ± 0.71 | –
286.19 K | 153.9 ± 0.71 | –
288.26 K | 154.74 ± 0.71 | –
290 K | 155.34 ± 0.71 | –
290.32 K | 155.45 ± 0.71 | –
292.38 K | 156.18 ± 0.71 | –
294.42 K | 157 ± 0.71 | –
295.88 K | 157.42 ± 0.71 | –
296.46 K | 157.62 ± 0.72 | –
298.15 K | 158.32 ± 0.72 | –
298.44 K | 158.35 ± 0.72 | –
300 K | 159.02 ± 0.72 | –
300.52 K | 159.26 ± 0.72 | –
300.98 K | 159.48 ± 0.72 | –
303.51 K | 160.28 ± 0.72 | –
306.03 K | 161.24 ± 0.72 | –
306.98 K | 161.57 ± 0.72 | –
308.54 K | 162.23 ± 0.72 | –
310 K | 162.81 ± 0.73 | –
310.04 K | 162.82 ± 0.73 | –
311.04 K | 163.32 ± 0.73 | –
311.61 K | 163.35 ± 0.73 | –
313.11 K | 164.04 ± 0.73 | –
313.53 K | 164.32 ± 0.73 | –
314.66 K | 164.78 ± 0.73 | –
316 K | 165.48 ± 0.73 | –
317.72 K | 166.19 ± 0.73 | –
318.47 K | 166.69 ± 0.73 | –
320 K | 167.31 ± 0.73 | –
320.77 K | 167.5 ± 0.74 | –
320.93 K | 167.74 ± 0.74 | –
323.38 K | 168.94 ± 0.74 | –
323.83 K | 169.15 ± 0.74 | –
325.82 K | 170.31 ± 0.74 | –
326.88 K | 171.2 ± 0.74 | –
328.25 K | 171.54 ± 0.74 | –
330 K | 172.45 ± 0.74 | –
335.92 K | 175.78 ± 0.75 | 197.88 ± 0.8
338.89 K | – | 198.6 ± 0.8
340 K | – | 198.76 ± 0.8
341.83 K | – | 199.12 ± 0.8
341.91 K | – | 199.27 ± 0.8
344.76 K | – | 199.68 ± 0.8
344.94 K | – | 199.89 ± 0.8
347.69 K | – | 200.32 ± 0.8
347.97 K | – | 200.6 ± 0.8
350 K | – | 200.94 ± 0.8
350.61 K | – | 200.99 ± 0.8
350.99 K | – | 201.16 ± 0.8
353.52 K | – | 201.63 ± 0.8
354 K | – | 201.88 ± 0.8
356.43 K | – | 202.27 ± 0.8
357.01 K | – | 202.62 ± 0.81
359.34 K | – | 202.96 ± 0.81
360 K | – | 203.18 ± 0.81
360.01 K | – | 203.24 ± 0.81
362.24 K | – | 203.68 ± 0.81
363.01 K | – | 203.85 ± 0.81
365.13 K | – | 204.35 ± 0.81
366 K | – | 204.62 ± 0.81
368.02 K | – | 204.99 ± 0.81
368.98 K | – | 205.5 ± 0.81
370 K | – | 205.46 ± 0.81
370.9 K | – | 205.72 ± 0.81
371.95 K | – | 206 ± 0.81
373.78 K | – | 206.29 ± 0.81
374.93 K | – | 206.68 ± 0.81
376.65 K | – | 206.96 ± 0.81
377.9 K | – | 207.35 ± 0.81
379.51 K | – | 207.51 ± 0.82
380 K | – | 207.79 ± 0.81
380.86 K | – | 207.96 ± 0.82

Source: the NIST ThermoML archive (doi:10.1021/je049762q)
